Measured values: patent US7521469B2, “Phosphinic amino acid compounds” (Les Laboratoires Servier, priority 2005, dated 2009)

What was measured:
[1] = target: T1, ECE (recombinant human form of the isoform ECE-1c) (Homo sapiens, UniProt P42892); assay: In vitro inhibitory effect on endothelin converting enzyme (ECE), quenched-fluorescence substrate; format: biochemical; settings: inhibitor incubated with enzyme 45 minutes; substrate Mca-Arg-Pro-Pro-Gly-Phe-Ser-Ala-Phc-Lys(Dnp)COOH 5 μM
T1 sequence (P42892 1-754 isoform P42892-3): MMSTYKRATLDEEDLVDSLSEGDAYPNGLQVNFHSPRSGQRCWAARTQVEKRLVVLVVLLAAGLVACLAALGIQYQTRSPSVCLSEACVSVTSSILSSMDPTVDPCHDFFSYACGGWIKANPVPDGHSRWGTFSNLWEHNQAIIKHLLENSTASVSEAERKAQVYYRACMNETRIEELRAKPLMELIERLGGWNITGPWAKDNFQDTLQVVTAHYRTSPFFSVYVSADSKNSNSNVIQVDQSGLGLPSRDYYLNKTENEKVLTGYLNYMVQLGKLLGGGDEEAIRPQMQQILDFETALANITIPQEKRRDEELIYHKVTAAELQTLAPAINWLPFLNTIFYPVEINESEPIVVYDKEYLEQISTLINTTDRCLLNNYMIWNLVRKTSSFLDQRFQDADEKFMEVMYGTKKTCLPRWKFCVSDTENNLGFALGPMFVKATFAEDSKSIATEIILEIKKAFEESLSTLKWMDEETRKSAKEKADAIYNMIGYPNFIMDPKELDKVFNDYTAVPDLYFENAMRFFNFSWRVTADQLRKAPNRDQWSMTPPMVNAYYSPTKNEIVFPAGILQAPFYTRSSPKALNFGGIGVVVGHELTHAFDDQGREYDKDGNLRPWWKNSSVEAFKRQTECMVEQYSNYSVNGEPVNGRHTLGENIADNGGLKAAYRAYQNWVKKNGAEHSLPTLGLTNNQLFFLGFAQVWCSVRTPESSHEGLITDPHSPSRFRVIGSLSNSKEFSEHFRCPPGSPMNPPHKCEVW
Experimental: (§1) In vitro inhibitory effect on angiotensin converting enzyme (ACE) and endothelin converting enzyme (ECE)
(§2) In order to compare their specificity, the compounds of the Examples were tested on 2 enzymes: ACE (recombinant human form) and ECE (recombinant human form of the isoform ECE-1c).
(§3) The tests were carried out in duplicate in 96-well plates. The inhibitor was incubated together with the enzyme for 45 minutes before the addition of a quenched-fluorescence substrate. The fluorescence emitted was detected and measured in a Fluoroscan Ascent plate reader (Thermo-Labsystems).
(§4) The fluorogenic substrates used are: Mca-Arg-Pro-Pro-Gly-Phe-Ser-Pro-DpaCOOH (5 μM) with ACE, and Mca-Arg-Pro-Pro-Gly-Phe-Ser-Ala-Phc-Lys(Dnp)COOH (5 μM; R&D Systems) with ECE.

[2] = target: ACE (recombinant human form) (Homo sapiens, UniProt P12821); assay: In vitro inhibitory effect on angiotensin converting enzyme (ACE), quenched-fluorescence substrate; format: biochemical; settings: inhibitor incubated with enzyme 45 minutes; substrate Mca-Arg-Pro-Pro-Gly-Phe-Ser-Pro-DpaCOOH 5 μM
Experimental: as §1, §2, §3, §4

ACE (recombinant human form), sequence (P12821 30-1306): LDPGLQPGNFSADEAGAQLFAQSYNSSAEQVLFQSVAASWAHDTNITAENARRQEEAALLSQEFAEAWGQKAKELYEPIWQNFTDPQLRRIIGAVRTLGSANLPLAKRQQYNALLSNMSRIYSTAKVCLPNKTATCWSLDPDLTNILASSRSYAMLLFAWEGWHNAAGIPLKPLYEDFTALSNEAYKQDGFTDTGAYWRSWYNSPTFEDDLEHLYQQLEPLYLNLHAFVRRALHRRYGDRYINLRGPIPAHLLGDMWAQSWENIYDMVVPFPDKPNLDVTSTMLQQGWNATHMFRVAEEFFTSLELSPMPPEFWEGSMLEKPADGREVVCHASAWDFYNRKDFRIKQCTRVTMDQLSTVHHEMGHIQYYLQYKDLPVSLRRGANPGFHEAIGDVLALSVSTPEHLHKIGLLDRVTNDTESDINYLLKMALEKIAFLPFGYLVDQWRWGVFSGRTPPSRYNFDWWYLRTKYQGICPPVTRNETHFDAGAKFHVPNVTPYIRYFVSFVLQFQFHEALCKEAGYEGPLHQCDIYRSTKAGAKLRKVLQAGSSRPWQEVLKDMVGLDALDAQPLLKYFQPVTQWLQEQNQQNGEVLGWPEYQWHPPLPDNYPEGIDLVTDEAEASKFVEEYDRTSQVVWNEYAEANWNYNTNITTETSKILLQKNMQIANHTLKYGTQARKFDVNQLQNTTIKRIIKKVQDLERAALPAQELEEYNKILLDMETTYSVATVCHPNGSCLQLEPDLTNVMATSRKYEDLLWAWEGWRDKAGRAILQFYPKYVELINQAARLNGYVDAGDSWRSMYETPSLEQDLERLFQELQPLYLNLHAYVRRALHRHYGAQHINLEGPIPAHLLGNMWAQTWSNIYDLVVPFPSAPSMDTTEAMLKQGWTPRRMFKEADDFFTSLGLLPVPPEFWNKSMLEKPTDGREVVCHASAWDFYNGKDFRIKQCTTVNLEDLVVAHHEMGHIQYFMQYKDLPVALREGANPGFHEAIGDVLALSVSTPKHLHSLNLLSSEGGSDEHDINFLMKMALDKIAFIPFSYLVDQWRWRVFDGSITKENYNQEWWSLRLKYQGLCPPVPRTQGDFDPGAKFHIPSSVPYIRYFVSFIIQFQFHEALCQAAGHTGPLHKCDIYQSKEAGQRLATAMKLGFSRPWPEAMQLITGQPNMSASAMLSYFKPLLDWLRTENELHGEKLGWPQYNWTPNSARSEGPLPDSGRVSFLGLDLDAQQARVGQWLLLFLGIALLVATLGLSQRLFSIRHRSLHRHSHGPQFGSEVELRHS

IC50 [1]	IC50 [2]	SMILES
8 nM	36 nM	O=C(N[C@@H](Cc1ccccc1)P(=O)(O)C[C@H](Cc1cc(-c2ccccc2)no1)C(=O)N[C@@H](Cc1c[nH]c2ccccc12)C(=O)O)OCc1ccccc1 [Example 1, (5R,8R,11S)-5-Benzyl-6-hydroxy-11-(1H-indol-3-ylmethyl)-3,9-dioxo-1-phenyl-8-[(3-phenyl-5-isoxazolyl)methyl]-2-oxa-4,10-diaza-6-phosphadodecan-12-oic acid 6-oxide]
7.7 nM	3.8 nM	O=C(N[C@@H](Cc1ccccc1)P(=O)(O)C[C@H](Cc1cc(-c2ccccc2)no1)C(=O)N[C@@H](Cc1ccccc1)C(=O)O)OCc1ccccc1 [Example 2, (5R,8R,11S)-5,11-Dibenzyl-6-hydroxy-3,9-dioxo-1-phenyl-8-[(3-phenyl-5-isoxazolyl)methyl]-2-oxa-4,10-diaza-6-phosphadodecan-12-oic acid 6-oxide]
1.4 nM	1.4 nM	O=C(N[C@@H](Cc1ccccc1)P(=O)(O)C[C@H](Cc1cc(-c2ccccc2)no1)C(=O)N[C@@H](Cc1ccc(O)cc1)C(=O)O)OCc1ccccc1 [Example 3, (5R,8R,11S)-5-Benzyl-6-hydroxy-11-(4-hydroxybenzyl)-3,9-dioxo-1-phenyl-8-[(3-phenyl-5-isoxazolyl)methyl]-2-oxa-4,10-diaza-6-phosphadodecan-12-oic acid 6-oxide]
